According to patent US4935422A, “Acyloxypropanolamines” (E. I. Du Pont de Nemours and Company, priority 1988, dated 1990):

target: β-adrenergic receptors (guinea pig right atria and guinea pig tracheal strips); assay: Beta-blocking activity in vitro: guinea pig right atria and tracheal strips, shift of isoproterenol concentration-response curves (pA2); conditions: β-blockade of isoproterenol response, 60-minute incubation, 37 °C; pA2 (-log KB) by method of Furchgott; tissue (atria or trachea) not stated in Table 1
Procedure: Several of the compounds of the present invention were tested for β-blocking activity in vitro using guinea pig right atria and guinea pig tracheal strips mounted in a tissue bath containing oxygenated (95% O2 -5% CO2) Krebs physiological salt solution at 37° C. Each tissue was suspended between a fixed glass rod and a Statham Universal Transducer connected to a Beckman recorder. Atria were allowed to beat spontaneously under a loading tension of approximately 0.5 gm. Intrinsic depressant or stimulant activity was determined for each compound by progressively increasing concentrations in the tissue baths at 60-minute intervals. Tissues were not washed between increments. The maximum concentration showing little or no cardiodepressant activity was chosen for blockade experiments. Changes in rate in response to isoproterenol, a standard β-receptor agonist, were measured in the absence and presence of test compounds. Spiral strips of guinea pig trachea were suspended under 5 gm resting tension and incubated with phentolamine, tropolone and cocaine. Active tension was generated by addition of carbachol (3.0×10^-7 M) and decreases in tension in response to isoproterenol were quantitated. Cumulative concentration-response curves were produced with isoproterenol both before and after 60-minute incubation of test compounds with atria and trachea. Compounds with β-blocking activity shifted concentration-response curves to the right. The blocking potency of test compounds was estimated by computing pA2 values (-log […]) by the method of Furchgott, the Pharmacological Differentiation of Adrenergic Receptors, Ann. N.Y. Acad. Sci., 139:553-570 (1967). […] The degree of cardioselectivity was estimated from the ratio, kβ trachea/Kβ atria (10^(pA.sbsp.2^atria-pA.sbsp.2^trachea)). A ratio greater than one indicates cardioselectivity. Test drugs were dissolved in distilled water and added to the bath (30 mL) in a volume of 10 or 100 μL. All of the test compounds are active β-blockers. [drawing 10]

Row | Structure (SMILES) | pA2
1 | CC(C)(C)NCC(O)COC(=O)C1CC1 (stereo not shown) [Compound 2] | 6.5
2 | CC(C)(C)NCC(O)COC(=O)C(C)(C)C (stereo not shown) [Compound 3] | 5.3
3 | CC(C)(C)NCC(O)COC(=O)C1CCC1 (stereo not shown) [Compound 4] | 5.0
4 | CC(C)C(=O)NCC(C)(C)NCC(O)COC(=O)C(C)(C)C (stereo not shown) [Compound 5] | 6.5
5 | CC(C)C(=O)NCC(C)(C)NCC(O)COC(=O)C1CCC1 (stereo not shown) [Compound 7] | 6.5
6 | CC(C)C(=O)NCC(C)(C)NCC(O)COC(=O)C1=CCCC1 (stereo not shown) [Compound 8] | 7.6
7 | CC(C)C(=O)NCC(C)(C)NCC(O)COC(=O)C1CC=CCC1 (stereo not shown) [Compound 9] | 6.9
8 | CC(C)(CNC(=O)N1CCCCC1)NCC(O)COC(=O)C1CC1 (stereo not shown) [Compound 10] | 8.1
9 | CC(C)(CNC(=O)N1CCOCC1)NCC(O)COC(=O)C1CC1 (stereo not shown) [Compound 11] | 8.0
10 | CC(C)(CNC(=O)C1CCOC1)NCC(O)COC(=O)/C=C/c1ccccc1 (stereo not shown) [Compound 12] | 7.3
